Experimental findings from patent US10046020B2, “Inflammation inhibiting compounds” (priority 2001, dated 2018) are described below.

Square brackets hold non-standard residues; d marks the D form. Peptide text beside a SMILES is read from it.

In data set [1] the test system is BNX mice transplanted with skin from psoriatic human donors. Briefly: Psoriasis transplant model (human psoriatic skin on BNX mice). Format: in vivo. Particulars: FIG. 25B; KdPT i.p. 10 μg/d, three weeks. As to the method: Immunodeficient mice (BNX mice) were transplanted with skin from psoriatic human donors. Animals with viable transplant were injected with PBMCs from the same donor, resulting in appearance of a psoriatic phenotype within the transplant. Animals were treated as follows:
Group 1: Betamethasone, topically, 2× daily, Group 2: Vehicle, i.p. 100 μL/d, Group 3: KdPT i.p. 1 μg/d, Group 4: KdPT i.p. 10 μg/d, all treatments were kept up for three weeks.
As shown in FIGS. 25A and 25B, immunodeficient mice (BNX mice) were transplanted with skin from psoriatic donors. Animals with viable transplant were injected with PBMCs from the same donor, resulting in appearance of a psoriatic phenotype within the transplant. Animals were treated as follows:
Group 1: Vehicle, i.p. 100 μL/d, Group 2: Betamethasone, topically, 2× daily, Group 3: KdPT i.p. 10 μg/d, all treatments were kept up for three weeks.

In the next data set the test system is Balb/C mice. Briefly: CHS sensitization and tolerance after i.v. injection of αMSH or peptides (DNFB). Particulars: for inhibition of CHS response to DNFB exposure 7 days after sensitization (auricular swelling): i.v. 2 hours before sensitization, 5 μg αMSH or 1.5 μg peptide (KP: 50 μg) per mouse; for auricular swelling response after second sensitization and hapten exposure (tolerance to DNFB): injected i.v. before the first sensitization only.

Data set [2] deals with bone marrow dendritic cells (BMDC). The data set is described as follows: CHS and tolerance after injection of BMDC treated in vitro with hapten and αMSH or KP. The data set is classed as in vivo, mice. Particulars: for immune response at second challenge after resensitization (tolerance): recipients of hapten- and peptide-treated BMDC; for CHS reaction at first challenge in recipients of hapten- and peptide-treated BMDC: αMSH 2×10^−11 M or KP 2×10^−6M in vitro, cells i.v. How it is done:
Bone marrow dendritic cells (BMDC) were isolated from the femoral bones of mice and treated with IL-4 and GMCSF for 6 or 9 days. On day 6 or 9, the cells were treated with αMSH (2×10^−11 M) or the peptide KP (2×10^−6M) 3 hours and 2.5 hours before reinjection into naive mice with the same genetic background. 2 hours before reinjection, the cells were treated with hapten (1 mM DNBS, the water-soluble form of DNFB). Immediately before the reinjection, the cells were washed 2× with PBS. […] were injected i.v. into each animal. Control cells were treated either with DNBS alone or with αMSH alone or were left untreated. 5 days after injection, the animals were contacted with DNFB on the ear, and the ear thickness was measured the next day. 2 weeks later, the animals were resensitized with DNFB and again recontacted on the ear 5 days later. Finally, the auricular swelling was measured.

For data set [3], the target named is T1, melanocortin receptor on THP-1 cells (MC-1) (Homo sapiens, UniProt Q01726).
T1 construct: endogenous in cells; host or cells: THP-1 monocytic cell line (unstimulated, whole cells)
The data set is described as follows: Competition with biotin-labeled αMSH for binding sites on THP-1 cells (FACS). Particulars: unlabeled competitor 10^−6 M; biotin-labeled αMSH 10^−10 M. How it is done:
All the steps were carried out at 0 to 4° C. The monocytic cell line THP-1 was washed once in PBS, once one acidic glycine buffer (50 mM glycine, 100 mM sodium chloride, pH 3) and three times with RPMI. The cells 2.5×10^6 per ml) were then resuspended in 100 μl of RPMI/1% BSA and transferred into 96-well microtiter plates. […] After a last washing step, the cells were resuspended in PBS. […] Dead cells were excluded by adding propidium iodide shortly before the FACS analysis.

A further data set relates to CD4+-T-cells. The data set is described as follows: CD4+ T-cells after contact with peptide-treated DC in vitro. The data set is classed as cell-based.
Data set [4] deals with sensitised recipient mice (Hapten: DNFB). Briefly: Reinjection of CD4+ T-cells contacted with peptide-treated DC into DNFB-sensitised mice. Format: in vivo. Particulars: 1×10^6 cells.
In another data set the test system is human PBMC. The data set is described as follows: IL-10 secretion by human PBMC (ELISA). The data set is classed as cell-based. Particulars: for IL-10 production: 24 hours, αMSH 10^−11 M, KPV and KPT 10^−8 to 10^−9M; for production of IL-10: 48 hours. How it is done: Mononuclear cells (PBMC) were separated from human buffy coats by Ficoll Hypaque density gradient centrifugation. Cells (1×10^6 per ml), cultivated in RPMI 1640 with antibiotics and 10% FCS, were either not treated or stimulated with αMSH or the peptides KPV or KPT with or without IL-1β (10 U/ml). The supernatants of the PBMC cultures were collected after incubation for 24 or 48 hours and stored at −20° C. until used further. A commercially available ELISA was employed to detect IL-10.

Data set [5] relates to E selectin, ICAM-1, VCAM in HDMEC and HMEC-1. Briefly: Expression of adhesion molecules in LPS- or TNFα-treated endothelial cells (RT-PCR, EIA, FACS). The data set is classed as cell-based, human. Particulars: 10^−6 to 10^−12 M. How it is done:
(§1) Human dermal microvascular endothelial cells (HDMEC) and the cell line HMEC-1 (human microvascular endothelial cell line 1) were treated either with TNFα or LPS in the presence or absence of one of the peptides. The cells were harvested for RNA isolation after 3 and after 6 hours after treatment or harvested either for adhesion molecule ETA or FACS analysis 3, 6, 16 or 24 hours after treatment. RNA underwent reverse transcription, and samples were subjected to a PCR for E selectin, ICAM-1, VCAM or for β-actin as housekeeping gene in order to carry out a semiquantitative determination. For the lymphocyte adhesion assay, the endothelial cells were seeded in dishes and incubated with ^51Cr-labeled lymphocytes. After a washing step, the amount of remaining lymphocytes bound to the EC layer was determined by measuring the radioactivity in the samples.

For a further data set, the system named is T cells / DC. The data set is described as follows: T cells contacted in vitro with antigen-loaded, αMSH or derivative-treated DC. Particulars: FIG. 15. Format: in vivo, mouse.
In data set [6] the test system is mice with Imiquimod-induced psoriasis-like skin inflammation. The data set is described as follows: Imiquimod-induced psoriasis-like disease in mice. Format: in vivo.
The next data set relates to HDMEC. Briefly: Lymphocyte adhesion assay (51Cr-labeled lymphocytes on endothelial cell layers). The data set is classed as cell-based, human. Particulars: molt4 T lymphocytes, JY B lymphocytes. As to the method: as §1
Data set [7] concerns PBMC from the blood of psoriasis patients. The data set is described as follows: Regulatory T cells in PBMC from blood of psoriasis patients. Format: cell-based, human.
The test system of a further data set is LPS-treated mice. The data set is described as follows: LPS-induced localized vasculitis in mice (E selectin, petechial lesions). Format: in vivo. Particulars: αMSH 25 μg at the time of the preparatory LPS injection. As to the method:
Mice were treated with LPS by s.c. injection on one ear. This preparatory injection induces a long-lasting rise in E selectin expression at the site of the LPS injection. 24 hours later, a second LPS dose was injected i.p. (challenge). This second LPS injection leads to rapid vessel necrolysis and to the formation of petechial lesions which are easily measurable because of their size and number. αMSH (25 μg) was administered at the time of the preparatory LPS injection.

T1 sequence (Q01726 whole entry): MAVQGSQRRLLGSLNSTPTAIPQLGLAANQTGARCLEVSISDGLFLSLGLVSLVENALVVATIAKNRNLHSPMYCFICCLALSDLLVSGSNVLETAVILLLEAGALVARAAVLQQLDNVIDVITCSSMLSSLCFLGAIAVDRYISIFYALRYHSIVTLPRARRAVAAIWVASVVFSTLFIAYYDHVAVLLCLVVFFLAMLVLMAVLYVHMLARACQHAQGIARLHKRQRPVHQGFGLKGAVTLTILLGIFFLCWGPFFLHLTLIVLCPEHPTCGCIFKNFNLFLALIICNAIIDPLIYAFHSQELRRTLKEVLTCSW
Method for Balb/C mice: 7 to 10 week old female Balb/C mice were obtained from Charles River (Sulzfeld, Germany) and kept in compliance with government regulations.
Before the injection, the particular compound was dissolved in PBS, 0.1% mouse serum, and stored on ice until injected i.v. into the tail vein of the mice.
The mice were sensitized by spreading 75 μl of 0.5% DNFB in acetone/olive oil (4:1) on the shaven abdomen of naive mice. CHS was induced by applying 10 μl of 0.3% DNFB to the ears of the mice on both sides of one ear. CHS was determined by the degree of auricular swelling of the hapten-exposed ear compared with the other, control-treated ear and was measured using spring-loaded dividers 24 hours after hapten exposure. Mice whose ears were exposed to hapten without previous sensitization served as negative controls.

Turning to `C[C@@H](O)[C@H](NC(=O)[C@H]1CCCN1C(=O)[C@@H](N)CCCCN)C(=O)O` [KdPT, (L)Lys-(D)Pro-(L)Thr] (H-Lys-[dP]-Thr-OH), the “weight loss as compared to treatment with betamethasone” value in data set [1] is listed as “does not result in weight loss”.

Regarding Lys-Pro [KP], in the data set on Balb/C mice, the “inhibition of CHS response to DNFB exposure 7 days after sensitization (auricular swelling)” value (“inhibition of CHS response” for short) is “inhibits”; the “auricular swelling response after second sensitization and hapten exposure (tolerance to DNFB)” value (“auricular swelling response” for short) was “inhibited the auricular swelling response very greatly”. In data set [2], the “immune response at second challenge after resensitization (tolerance)” value is listed as “can induce tolerance”; the “CHS reaction at first challenge in recipients of hapten- and peptide-treated BMDC” value is “suppressed”.

On to Lys-Pro-Val [KPV], for which, in the data set on Balb/C mice, the “inhibition of CHS response” value is listed as “inhibits”; the “auricular swelling response” value is on record as “weak effect”. The “suppression of biotin-labeled αMSH binding” value in data set [3] was “significant inhibition”. Besides, the “effect of co-cultured CD4+ T-cells on proliferation of CD4+CD25− responder T-cells” value in the data set with CD4+-T-cells is “suppressive effect on the proliferation”. Moreover, in data set [4], the “effect of reinjected CD4+ T-cells on contact allergy” value is recorded as “suppressive effect on contact allergy”. Moreover, in the data set with human PBMC, the IL-10 production entry is “evidently induced IL-10 production” and the “production of IL-10” value is given as “significantly increased”.

Take α-melanocyte-stimulating hormone [αMSH]: in the data set on Balb/C mice, the “inhibition of CHS response” value is reported as “inhibits”; the “auricular swelling response” value is “inhibited the auricular swelling response very greatly”. Also, the “inhibition of LPS- or TNFα-induced expression of adhesion molecules (mRNA)” value in [5] is listed as “inhibited”. Also, the “induction of tolerance by T cells contacted in vitro with antigen-loaded, treated DC” value in the data set with T cells / DC is reported as “induction of tolerance”. Besides, in data set [6] (flow cytometry), the “number of regulatory CD4+CD25+Foxp3+ T cells” value is on record as “increased numbers”. The “expression of regulatory T cells markers” value in data set [6] (qRT-PCR) is reported as “increased expression”. Besides, the “expression of Th17 markers” value in data set [6] (quantitative RT-PCR) is given as “Reduced Expression”. Moreover, the “binding of T and B cells to LPS- or TNF-αMSH-treated EC layers” value in the data set with HDMEC was “significantly reduces”. In data set [7], the “expression of Foxp3 and IL-10 in regulatory T cells” value is on record as “upregulated”; the “expression of IFN-γ in regulatory T cells” value is listed as “downregulated substantially”. For the same compound, in the data set with LPS-treated mice, the “number and size of petechial lesions after challenge injection of LPS” value is given as “significantly reduces”. For the same compound, the “effect of co-cultured CD4+ T-cells on proliferation of CD4+CD25− responder T-cells” value in the data set with CD4+-T-cells is on record as “suppressive effect on the proliferation”. Further, in data set [2], the “immune response at second challenge after resensitization (tolerance)” value was “no immune response”; the “CHS reaction at first challenge in recipients of hapten- and peptide-treated BMDC” value is recorded as “suppressed”. Moreover, in data set [4], the “effect of reinjected CD4+ T-cells on contact allergy” value is on record as “suppressive effect on contact allergy”. Moreover, in the data set with human PBMC, the IL-10 production result is “evidently induced IL-10 production” and the “production of IL-10” value is given as “significantly increased”.
